Reference: patent publication US20060062793A1, “Modified antibodies to prostate-specific membrane antigen and uses thereof” (priority 2004, published 2006)

Legend:
[1] = tested on: PSMA-positive human LNCaP tumors; assay: Biodistribution of 111In labeled MAbs in nude mice bearing LNCaP tumors; format: in vivo, mouse
Procedure: (§1) Prior to use, the cells were trypsinized, counted and suspended in Matrigel (Collaborative Biomedical Products, Bedford, Mass.). Nu/Nu Balb C mice 8-10 weeks of age were inoculated, in the right and left flanks, with a suspension of 5×10^6 LNCaP cells in Matrigel (BD Biosciences, Bedford Mass.). After a period of 14-18 days, tumors (100-300 mg) had developed. The PSMA-negative DU145 and PC3 cells were implanted in nude mice in an identical manner.
(§2) The PSMA-positive and PSMA-negative tumor bearing mice were injected, via the tail vein, with 80 KBq of the iodinated MAb (400 MBq/mg) in 200 μL of PBS (pH 7.4, 0.2% BSA). Groups of animals (3-8/group) were sacrificed after 2, 4 or 6 days. The major organs and tumors were recovered. The tissue samples were weighed and counted, with appropriate standards in an automatic NaI(Tl) counter. These measured relative activity data (cpm) were background corrected and expressed as a percentage of the injected dose per gram (% ID/g). […] J415, J591 and 7E11 were labeled with ^111In (100 MBq/mg). 80 KBq of the ^111In labeled MAbs were injected in groups of animals. The % ID/g in various organs and tumor tissues was determined at 2-6 days post injection in a similar way as described for ^131I labeled MAbs.

LNCaP tumor sections = format: in vivo, mouse
[2] = tested on: hormone-independent prostate cancer; assay: Phase I trial of trace-labeled 131I-J591 (murine) in hormone-independent prostate cancer patients; format: in vivo, human
Procedure: Hormone-independent patients with rising PSA levels and acceptable hematologic, hepatic and renal function received a single dose of murine mAb J591. Doses are escalated (from 0.5-300 mg) in groups of three to six patients. Each dose included ≦1.0 mg J591 labeled with 10 mCi ^131I iodine as a tracer plus “cold” mAb. The dose levels used ranged from 0.5 to 300.0 mg as follows: 0.5 mg, 1.0 mg, 2.0 mg, 5.0 mg, 10 mg, 25 mg, 50 mg, 100 mg, 125 mg, 150 mg, 200 mg, 250 mg, and 300 mg. Blood and urine were collected to monitor pharmacokinetics, toxicity and human anti-mouse antibody (HAMA) response. Patients were imaged on the day of injection (day 0), as well as days 2, 4 and 6 to track mAb targeting.

[3] = tested on: PSMA-negative DU145 tumors; format: in vivo, mouse; conditions: 4 days post injection, DU145 tumors (n=6)
Procedure: as §1, §2
(§3) The uptake in lungs, kidney, muscle was similar with all three antibodies.

PSMA-negative PC3 tumors = format: in vivo, mouse; conditions: 4 days post injection, PC3 tumors (n=10)
Procedure: as §1, §2, §3

[4] = tested on: PSMA-positive CWR22 xenografts; assay: deJ591-DM1 efficacy in PSMA-positive CWR22 xenografts in scid mice; format: in vivo, mouse
Procedure: (§4) Experiment: Male SCID mice were implanted by serial passage of CWR22 prostate tumor xenograft. […] All treatments were given intravenously. Tumor growth and animal health were continually monitored throughout the study with tumor growth measured every 3 days.
Experiment: Male C.B-17 SCID mice bearing CWR22 xenografts approximately 200 mm^3 in size received IV injections (200 μL constant volume) of the test articles according to the dose and schedule as shown in Table 22.
Male C.B-17 scid mice bearing CWR22 xenografts approximately 200 mm^3 in size received IV injections (200 μL constant volume) of the test articles according to the dose and schedule shown in the Table 23.
The objective of this study was to determine how much the dosing interval could be increased at this dosage before a loss of efficacy in terms of TGD would be observed. […] The growth delays for the other schedules were: q7d, 53.0 days; q21d, 48.0 days; and q28d, 26.9 days. Similar to other studies using the CWR22 xenograft model, no curative responses were observed, with all tumors eventually resuming growth (FIG. 18).
as §4, with “intravenously and on a schedule of every three days for 5 doses.” for “intravenously.”
as §4, with “intravenously and on a schedule of every seven days for 5 doses.” for “intravenously.”

[5] = tested on: androgen-independent PSMA-positive 22RV1 xenograft; assay: deJ591-DM1 efficacy in castrate or intact scid mice bearing 22RV1 xenograft; format: in vivo, mouse
Procedure: Prostate tumors can be broadly classified as either androgen-dependent or androgen-independent. […] The 22RV1 cell line was originally developed as androgen-independent and can be grown as a xenograft in C.B-17 scid mice that have been left either intact or castrated. […] This was approximately twice the time required for the tumors of intact mice to reach 1000 mm^3 (9.3 days). C.B-17 scid mice bearing CWR22 xenografts approximately 200 mm^3 in size received IV injections (200 μL constant volume) of the test articles according to the dosage and schedule shown in the Table 24.

[6] = tested on: metastatic androgen-independent prostate cancer; assay: Phase 1 ascending dose trial of DM1 conjugated deJ591 in metastatic androgen-independent prostate cancer; format: in vivo, human
Procedure: Based upon emerging clinical safety and PK, repeat dosing at four week intervals was subsequently permitted.
DLT is defined as the occurrence of one or more of the following: • Hematologic: Grade 4 thrombocytopenia (platelet count <10,000/mm3) • Requirement for platelet transfusion and/or other methods to increase platelet count • Febrile neutropenia (ANC<1000/mm^3 concurrent with a temperature >38.5° C.). (Per the Infection/Febrile Neutropenia subsection of the NCI CTC version 2.0, febrile neutropenia is, by definition, a >Grade 3 toxicity) • Grade 4 neutropenia without fever of >7 days duration • Grade 3 neutropenia requiring granulocyte colony-stimulating factor (G-CSF) administration • Grade 4 anemia (hemoglobin <6.5 g/dL) • Grade 3 anemia (hemoglobin 6.5-<8.0 g/dL) in a subject receiving EpogenÒNon-hematologic • Any Grade 3 non-hematologic toxicity considered by the investigator to be possibly related to study drugMTD is defined as the highest dose level with an observed incidence of DLT in no more than 1 out of 6 subjects. […]
The starting dose is 18 mg/m2. […] Dose escalation will continue until DLT and MTD are determined. […] Subsequent dose escalation and enrollment will be determined by the number and grade of toxicities observed in these two additional subjects. […] The previous dose level will be evaluated as potential MTD. […]

LNCaP tumor = assay: Gamma camera imaging of nude mice with 111In-DOTA-J591; format: in vivo, mouse; conditions: days 1-6
Procedure: For the imaging studies, animals were injected with 2 MBq of ^111In-DOTA-J591. On days 1, 2, 3, 4 and 6 post-injection, the mice were sedated with ketamine/xylazine 100 mg/kg/10 mg/kg IP. The mice were imaged with a gamma camera (Transcam, ADAC Laboratories, Milpitas, Calif.) equipped with a pinhole collimator. The images were acquired in a 256×256 matrix for 1000 seconds using a 20% window of 245 KeV photopeak of ^111In.

[7] = tested on: recurrent, progressing prostate cancer; assay: Phase I trial of four weekly doses of 111In-DOTA-deJ591; design: species or system human; conditions: in vivo
Procedure: Patients with recurrent, progressing prostate cancer received four weekly doses of ^111In-DOTA-deJ591. Doses were escalated in cohorts of three patients and ranged from 62.5-500 mg/m2 (total). […] After the first dose, patients were imaged on the day of injection (day 0) and days 1, 2, 4 and 7.
Serum PK, immune reaction and toxicity were evaluated after each dose for a minimum of 12 weeks.

[8] = tested on: hormone refractory prostate cancer; assay: 111In-DOTA-deJ591 targeting of hormone refractory prostate cancer (single 20 mg dose, imaging); format: in vivo, human
prostate tissue = assay: Immunohistochemistry of DOTA conjugated deJ591
Procedure: Immunohistochemistry was performed on the DOTA conjugated, partially purified, bulk intermediate deJ591.

[9] = 14.5 mg/kg, 7 and 14 day dosing interval

“J591: murine monoclonal antibody to the extracellular domain of human PSMA; hybridoma ATCC HB-12126” was tested, and the “kinetics of blood clearance” value [1] was “faster compared to 7E11” and the intra-tumoral distribution pattern (LNCaP tumor sections; 131I-labeled, 4 to 6 days after intravenous injection) was “distinct preferential accumulation in areas of viable tumor”.

For “^131I-J591: murine mAb J591 labeled with 131I iodine”, the “binding pattern, ex vivo autoradiography” value (LNCaP tumor sections; incubated directly on the tissue section) was “homogeneous binding pattern”, the “adverse events related to the murine antibody” value ([2]; 33 patients) was “Only one patient had an adverse event related to the murine antibody” and the “positive monoclonal antibody scans among patients with positive soft tissue (CT scans)” value ([2]; eight out of nine) was “about 90%”. The “human anti-murine antibody (HAMA) response” value ([2]; human, in vivo) was “Eight out of sixteen evaluable patients”, the “patients in whom known sites of prostate cancer metastases can be imaged” value ([2]; patients with disease sites imaged by conventional studies) was “approximately 80%” and the “positive monoclonal antibody scans among patients with positive bone scans” value ([2]; twenty-four out of twenty-seven) was “about 90%”.

Molecule ^131I-deJ591 has a tumor uptake [3] of 0.55±0.03 % ID/g and a tumor uptake (PSMA-negative PC3 tumors) of 0.66±0.07 % ID/g.

In the case of COc1cc2cc(c1Cl)N(C)C(=O)C[C@H](OC(=O)[C@H](C)N(C)C(C)=O)[C@]1(C)O[C@H]1[C@H](C)[C@@H]1C[C@@](O)(NC(=O)O1)[C@H](OC)/C=C/C=C(\C)C2 [Maytansine, reference compound], the “Tumor Growth Delay” value ([4]; 240 μg/kg (240 μg/kg DM1-equivalents), qdX5, IV, Comparison I) is reported as 17.7 days.

For “deJ591-DM1: deJ591 conjugated via SPP disulfide linker to the maytansinoid cytotoxin DM1”, the “resumption of normal growth kinetics after the last dose” value [4, 9] was “approximately 30 days”, the tumor growth [4, 9] was “apparent block in tumor growth” and the “suppression of tumor growth following the last administered dose” value ([4]; 14.5 mg/kg, every three days for 5 doses, IV) was “approximately 20 days”. For the same molecule, the “Efficacious dosage in SCID mouse xenografts, DM1-Equivalents received” value ([4]; SCID mouse xenografts, DM1-equivalents) was “˜0.72 mg/m^2”, the “tumor growth inhibitory effect” value ([4]; doses and schedules of Comparison I, non-curative) was “substantial tumor growth inhibitory effect” and the “effect on large tumors (500 to 2000 mm^3)” value ([4]; second course, 12.93 mg/kg) was “potent regressions in large tumors”. For the same molecule, the “TGD compared to DM1 at equivalent dose and schedule” value ([5]; androgen-intact mice, q3d schedule) was “better TGD”, the dose-limiting toxicity ([6]; highest dose level 343 mg/m^2) was “Only one DLT, an uncomplicated febrile neutropenia” and the tumor response ([6]; one patient, 264 mg/m^2) was “PR by RECIST criteria”.

In the case of MLN2704, the “Tumor Growth Delay” value ([5]; Castrate mice, 22RV1 xenograft, 240 μg/kg DM1-equivalents, q7dX5) is reported as 21.4 days.

With ^111In-DOTA-deJ591 the “tumor accumulation on serial gamma camera images” value (LNCaP tumor) was “intense tumor accumulation”, the “mAb targeting to non-prostate cancer sites” value [7] was “No mAb targeting to non-prostate cancer sites was noted” and the “Plasma clearance (T1/2)” value ([8]; 20 mg deJ591) was 34 ± 5 h. The Liver uptake ([8]; day 6) was 27±1.7%, the “accumulation in the prostate gland” value ([8]; patients with intact but irradiated prostate) was “generally minimal” and the “absorbed dose by the liver” value ([8]; with 111In) was 2.8±0.25 rads/mCi.

For DOTA-deJ591, the “tissue specificity by immunohistochemistry” value (prostate tissue) was “specific to prostate tissue” and the reactivity by immunohistochemistry (prostate tissue; compared with naked deJ591) was “equivalent to the naked deJ591 antibody”.
